From paper PMC5972026 (Journal of medicinal chemistry, 2017)
Entries after “also recorded” stand apart in the source; their conditions may differ. Structures can show the parent of a compound that is named as a salt.

How the values were obtained:
A/M2 V27A mutant channel [1] = biological target: T1, A/M2 V27A mutant channel (Influenza A virus, UniProt P0DOF5, V27A); format: cell-based
A/M2 V27A mutant channel [2] = biological target: T1, A/M2 V27A mutant channel; settings: cited from earlier work
A/M2 S31N mutant channel = settings: cited from earlier work
[3] = tested on: A/WSN/33 virus (H1N1 subtype), N31S/V27A M2; format: cell-based, influenza A virus

Structure (SMILES): NC12CC3CC(CC(C3)C1)C2 [Amantadine, 1-aminoadamantane]
- Inhibition by 100 μM for 2 min (%) (A/M2 V27A mutant channel [1]): 8.9 ± 1.0%
- Activity against the V27A mutant (A/M2 V27A mutant channel [2]): totally inactive
- IC50 (A/M2 S31N mutant channel): 200 µM

Structure (SMILES): C1CC(C23CC4CC(CC(C4)C2)C3)CCN1 [Compound 2, 4-(1-adamantyl)piperidine hydrochloride]
- Binding behaviour (A/M2 V27A mutant channel [1]): fast and weak
- Antiviral activity in 46-h PRA [3]: weak activity; also recorded: minimal antiviral activity

Structure (SMILES): C1CC(C2C3CC4CC(C3)CC2C4)CCN1 (stereo not drawn) [Compound 3, 4-(Adamantan-2-yl)piperidine hydrochloride]
- Antiviral activity in 46-h PRA [3]: inactive

Structure (SMILES): N=C(N)N1CCC(C23CC4CC(CC(C4)C2)C3)CC1 [Compound 7, N-amidyl-4-(1-adamantyl)piperidine hydrochloride]
- Binding behaviour (A/M2 V27A mutant channel [1]): fast and weak binder
- Antiviral activity in 46-h PRA [3]: inactive

Structure (SMILES): C1CCC(C23CC4CC(CC(C4)C2)C3)NC1 (stereo not drawn) [Compound 8, 2-(1-adamantyl)piperidine hydrochloride]
- Binding behaviour (A/M2 V27A mutant channel [1]): no remarkable binding at all
- Time after which inhibition is at steady-state (A/M2 V27A mutant channel [1]): ≤ 1 min
- Antiviral activity in 46-h PRA [3]: inactive

Structure (SMILES): N=C(N)N1CCC(C=C2C3CC4CC(C3)CC2C4)CC1 [Compound 19, 4-[(adamantan-2-ylidene)methyl]piperidine-1-carboximidamide hydrochloride]
- Antiviral activity in 46-h PRA [3]: inactive
